Patent US8247211B2, “Glycopeptide antibiotics” (American Cyanamid Company, priority 2001, dated 2012)
≈ marks a conversion by molar mass, not a printed value.

Key:
Staphylococcus sp. = assay: In vitro antibacterial evaluation: minimum inhibitory concentration (MIC), broth dilution method; assay type: cell-based
Procedure, shortened: (§1)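 NCCLS M7-A2 broth dilution with Mueller-Hinton II, testing 64-0.06 μg/mL antibiotic against 5×10^5 CFU/mL inocula. Test strains include recent methicillin-, penicillin- or vancomycin-resistant clinical isolates. MIC is the lowest concentration preventing growth.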

Streptococcus sp. = assay: as above; assay type: cell-based; details: 18 hours at 35° C.
Procedure, shortened: as §1

Escherichia coli = assay: as above; assay type: cell-based; details: 18 hours at 35° C.
Procedure, shortened: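 Using Muller-Hinton II […] and an inoculum of 5×10^5 CFU/mL, antibiotic dilutions from 64 down to 0.06 μg/mL were tested following NCCLS M7-A2. The MIC is the lowest concentration inhibiting growth, including in methicillin-, penicillin- or vancomycin-resistant clinical isolates.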

Enterococcus sp. = assay: as above; assay type: cell-based; details: 18 hours at 35° C.
Procedure, shortened: as §1

[1] = Anatomic pathology (heart and kidney histopathology) in mice; assay type: in vivo, CD-1 mice; details: 20 mg/kg intravenously daily for 9 days, microscopic histopathology on day 10
Procedure, shortened: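 Histopathology on H&E-stained, paraffin-embedded sections, subjectively scored (slight, mild, moderate, marked, severe) relative to untreated controls. Dosing: glycopeptide antibiotics 20 mg/kg intravenously once daily ×9 days in 20-day-old CD-1 mice, n=5 per group including vehicle.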

[2] = system: Staphylococcus aureus-SMITH (GC 4543); assay: Acute lethal infection in mice (ED50); assay type: in vivo; details: female CD-1 mice, intraperitoneal challenge, intravenous dose 30 min. after infection, 7 day survival ratios
Procedure, shortened: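 IP bacterial challenge, female CD-1 mice; inoculum lethal to untreated controls in 24-48 hr. IV dosing in saline or 5% dextrose 30 min post-infection, 5 mice/dose. ED50 from 7-day survival, 3 tests pooled.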

[3] = broth dilution, inoculum 5×10^5 CFU/mL

CC(C1CCCCC1)C1NC(=O)CNC(=O)C(CO)NC(=O)C(C(O)C2CNC(=N)N2C2OC(CO)C(O)C(O)C2O)NC(=O)C(C(O)C2CNC(=N)N2)NC(=O)C(Cc2ccc(OC3OC(CO)C(OC4OC5COC6(OC5C(O)C4O)C4CC5CC(C4)CC6C5)C(O)C3O)cc2)NC1=O (stereo not drawn) [Example 221, Cyclo[3-cyclohexyl-2-aminobutanoyl-O-[4-O-[4,6-O-(2-adamantylidene)hexopyranosyl]hexopyranosyl]tyrosyl-3-(2-iminoimidazolidin-4-yl)seryl-3-(3-hexopyranosyl-2-iminoimidazolidin-4-yl)serylserylglycyl]]
MIC Staphylococcus aureus (ATCC 29213) (Staphylococcus sp.; strain ATCC 29213): 1 µg/mL (≈ 0.698 µM) | MIC Staphylococcus aureus (GC 1131) (Staphylococcus sp.; strain GC 1131): 2 µg/mL (≈ 1.4 µM) | MIC Staphylococcus aureus (GC 3051) (Staphylococcus sp.; strain GC 3051): 2 µg/mL (≈ 1.4 µM) | MIC Staphylococcus aureus (GC 3053) (Staphylococcus sp.; strain GC 3053): 1 µg/mL (≈ 0.698 µM) | MIC Staphylococcus aureus (GC 4541) (Staphylococcus sp.; strain GC 4541): 2 µg/mL (≈ 1.4 µM) | MIC Staphylococcus aureus (GC 4542) (Staphylococcus sp.; strain GC 4542): 2 µg/mL (≈ 1.4 µM) | MIC Staphylococcus aureus-SMITH (GC 4543) (Staphylococcus sp.; strain GC 4543): 2 µg/mL (≈ 1.4 µM) | MIC Staphylococcus aureus (GC 4544) (Staphylococcus sp.; strain GC 4544): 2 µg/mL (≈ 1.4 µM) | MIC Staphylococcus aureus (GC 4545) (Staphylococcus sp.; strain GC 4545): 2 µg/mL (≈ 1.4 µM) | MIC Staphylococcus haemolyticus (GC 4546) (Staphylococcus sp.; strain GC 4546): 2 µg/mL (≈ 1.4 µM) | MIC Coagulase Negative Staphylococcus (GC 4547) (Staphylococcus sp.; strain GC 4547): 2 µg/mL (≈ 1.4 µM) | MIC Coagulase Negative Staphylococcus (GC 4548) (Staphylococcus sp.; strain GC 4548): 1 µg/mL (≈ 0.698 µM) | MIC Coagulase Negative Staphylococcus (GC 4549) (Staphylococcus sp.; strain GC 4549): 1 µg/mL (≈ 0.698 µM) | MIC Coagulase Negative Staphylococcus (GC 4551) (Staphylococcus sp.; strain GC 4551): 2 µg/mL (≈ 1.4 µM) | MIC Streptococcus agalactiae (GC 4564) (Streptococcus sp.; Streptococcus agalactiae (GC 4564)): <0.12 µg/mL | MIC Streptococcus pneumoniae (ATCC 6301) (Streptococcus sp.; Streptococcus pneumoniae (ATCC 6301)): <0.12 µg/mL | MIC Streptococcus pneumoniae (GC 1894) (Streptococcus sp.; Streptococcus pneumoniae (GC 1894)): <0.12 µg/mL | MIC Streptococcus pneumoniae (GC 4565) (Streptococcus sp.; Streptococcus pneumoniae (GC 4565)): <0.12 µg/mL | MIC Streptococcus pyogenes (GC 4563) (Streptococcus sp.; Streptococcus pyogenes (GC 4563)): <0.12 µg/mL | MIC Streptococcus agalactiae (GC 4564) (Streptococcus sp.; [3]): <0.12 µg/mL | MIC Streptococcus pneumoniae (ATCC 6301) (Streptococcus sp.; [3]): <0.12 µg/mL | MIC Streptococcus pneumoniae (GC 1894) (Streptococcus sp.; [3]): <0.12 µg/mL | MIC Streptococcus pneumoniae (GC 4565) (Streptococcus sp.; [3]): <0.12 µg/mL | MIC Streptococcus pyogenes (GC 4563) (Streptococcus sp.; [3]): <0.12 µg/mL | MIC Escherichia coli (ATCC 25922) (Escherichia coli; Escherichia coli (ATCC 25922)): 64 µg/mL (≈ 44.6 µM) | MIC Escherichia coli (GC 4559) (Escherichia coli; Escherichia coli (GC 4559)): 32 µg/mL (≈ 22.3 µM) | MIC Escherichia coli (GC 4560) (Escherichia coli; Escherichia coli (GC 4560)): 2 µg/mL (≈ 1.4 µM) | MIC Enterococcus avium (GC 4558) (Enterococcus sp.; Enterococcus avium (GC 4558)): 2 µg/mL (≈ 1.4 µM) | MIC Enterococcus faecalis (ATCC 29212) (Enterococcus sp.; Enterococcus faecalis (ATCC 29212)): 2 µg/mL (≈ 1.4 µM) | MIC Enterococcus faecalis (GC 2242) (Enterococcus sp.; Enterococcus faecalis (GC 2242)): 2 µg/mL (≈ 1.4 µM) | MIC Enterococcus faecalis (GC 2691) (Enterococcus sp.; Enterococcus faecalis (GC 2691)): 2 µg/mL (≈ 1.4 µM) | MIC Enterococcus faecalis (GC 3059) (Enterococcus sp.; Enterococcus faecalis (GC 3059)): 1 µg/mL (≈ 0.698 µM) | MIC Enterococcus faecalis (GC 4552) (Enterococcus sp.; Enterococcus faecalis (GC 4552)): 2 µg/mL (≈ 1.4 µM) | MIC Enterococcus faecalis (GC 4553) (Enterococcus sp.; Enterococcus faecalis (GC 4553)): 2 µg/mL (≈ 1.4 µM) | MIC Enterococcus faecalis (GC 4554) (Enterococcus sp.; Enterococcus faecalis (GC 4554)): 2 µg/mL (≈ 1.4 µM) | MIC Enterococcus faecalis (GC 6189) (Enterococcus sp.; Enterococcus faecalis (GC 6189)): 1 µg/mL (≈ 0.698 µM) | MIC Enterococcus faecium (GC 2243) (Enterococcus sp.; Enterococcus faecium (GC 2243)): 2 µg/mL (≈ 1.4 µM) | MIC Enterococcus faecium (GC 4556) (Enterococcus sp.; Enterococcus faecium (GC 4556)): 2 µg/mL (≈ 1.4 µM) | MIC Enterococcus faecium (GC 4557) (Enterococcus sp.; Enterococcus faecium (GC 4557)): 1 µg/mL (≈ 0.698 µM) | MIC Enterococcus avium (GC 4558) (Enterococcus sp.; [3]): 2 µg/mL (≈ 1.4 µM) | MIC Enterococcus faecalis (ATCC 29212) (Enterococcus sp.; [3]): 2 µg/mL (≈ 1.4 µM) | MIC Enterococcus faecalis (GC 2242) (Enterococcus sp.; [3]): 2 µg/mL (≈ 1.4 µM) | MIC Enterococcus faecalis (GC 2691) (Enterococcus sp.; [3]): 2 µg/mL (≈ 1.4 µM) | MIC Enterococcus faecalis (GC 3059) (Enterococcus sp.; [3]): 1 µg/mL (≈ 0.698 µM) | MIC Enterococcus faecalis (GC 4552) (Enterococcus sp.; [3]): 2 µg/mL (≈ 1.4 µM) | MIC Enterococcus faecalis (GC 4553) (Enterococcus sp.; [3]): 2 µg/mL (≈ 1.4 µM) | MIC Enterococcus faecalis (GC 4554) (Enterococcus sp.; [3]): 2 µg/mL (≈ 1.4 µM) | MIC Enterococcus faecalis (GC 6189) (Enterococcus sp.; [3]): 1 µg/mL (≈ 0.698 µM) | MIC Enterococcus faecium (GC 2243) (Enterococcus sp.; [3]): 2 µg/mL (≈ 1.4 µM) | MIC Enterococcus faecium (GC 4556) (Enterococcus sp.; [3]): 2 µg/mL (≈ 1.4 µM) | MIC Enterococcus faecium (GC 4557) (Enterococcus sp.; [3]): 1 µg/mL (≈ 0.698 µM) | Anatomical Pathology (Day 10), Heart [1]: 0 | Anatomical Pathology (Day 10), Kidney [1]: 0 | median effective dose (ED50), Staphylococcus aureus-SMITH (GC 4543) [2]: 0.03 mg/kg
